# Columns and labels:
# [1] = particle density of the crystal forms (Ultrapyknometer, or from single crystal X-ray structural analysis); type: physicochemical; conditions: for Density, calculated from SCA: calculated from single crystal X-ray structural analysis (SCA); for Density, experimental: method SOP 5024, Ultrapyknometer 1000 T
# Experimental: A DSC Pyris 1 from Perkin Elmer was used to determine the melting points. The measurements were carried out using a heating rate of 10 K min^−1. In each case, the given melting points refer to the peak maximum under the given conditions. The Raman spectra of the crystal forms were recorded using an RFS 100/S FT-Raman from Bruker (128 scans per measurement). The particle density was determined experimentally according to method SOP 5024 for determining densities using the Ultrapyknometer 1000 T from Quanta-Chrome or theoretically from the single crystal. X-ray structural analysis (SCA). The single crystal X-ray structural analysis was carried out using a P4RA four-cycle diffractometer from Siemens with rotating anode generator, graphite monochromator, scintillation counter and low-temperature unit. Measurement was carried out using molybdenum radiation of a wavelength of 0.71073 (MoKα).
# [2] = thermodynamic stability of the crystal forms; conditions: for thermodynamic stability of the crystal form: at room temperature
SMILES,"Density, calculated from SCA [1]","Density, experimental [1]",thermodynamic stability of the crystal form [2],temperature below which the crystal form is stable ([2]; pressure of 1013 mbar)
"OC(Cc1ccccc1Cl)(Cn1nc[nH]c1=S)C1(Cl)CC1 (stereo not shown) [form I, 2-[2-(1-chlorocyclopropyl)-3-(2-chlorophenyl)-2-hydroxypropyl]-2,4-dihydro-3H-1,2,4-triazole-3-thione, reference compound]",1.432 Mg/m^3,1.39 Mg/m^3,metastable,
"OC(Cc1ccccc1Cl)(Cn1nc[nH]c1=S)C1(Cl)CC1 (stereo not shown) [form II, 2-[2-(1-chlorocyclopropyl)-3-(2-chlorophenyl)-2-hydroxypropyl]-2,4-dihydro-3H-1,2,4-triazole-3-thione]",1.471 Mg/m^3,1.43 Mg/m^3,thermodynamically stable,below 90 °C
